In publication PMC11558128 (Advanced Science, 2024):
Positions of bridges follow the written chain, without caps; N, C: chain ends. Residues, ends and D or L forms follow the SMILES beside them.

Legend:
[1] = biological target: T1, rKv4.2 D281A (Rattus norvegicus, UniProt Q63881, D281A); assay: Patch clamp of rKv4.2 mutant D281A; format: cell-based; details: mean ± SEM
T1 construct: expressed in transfected cells; host or cells: HEK293T

[2] = biological target: T2, rKv2.1 (Rattus norvegicus, UniProt P15387); assay: Whole-cell patch clamp of rKv2.1 currents; format: cell-based; details: mean ± S.E.M., n = 6, SEM
T2 construct: expressed in transfected cells; host or cells: HEK293T

[3] = biological target: T3, mKv4.1 (Mus musculus, UniProt Q03719); assay: Whole-cell patch clamp of mKv4.1 currents; format: cell-based; details: mean ± S.E.M., n = 5, SEM
T3 construct: expressed in transfected cells; host or cells: HEK293T

[4] = tested on: native Kv channels of rat primary cardiomyocytes; details: 5 µM; n = 5

T2 sequence (P15387 whole entry): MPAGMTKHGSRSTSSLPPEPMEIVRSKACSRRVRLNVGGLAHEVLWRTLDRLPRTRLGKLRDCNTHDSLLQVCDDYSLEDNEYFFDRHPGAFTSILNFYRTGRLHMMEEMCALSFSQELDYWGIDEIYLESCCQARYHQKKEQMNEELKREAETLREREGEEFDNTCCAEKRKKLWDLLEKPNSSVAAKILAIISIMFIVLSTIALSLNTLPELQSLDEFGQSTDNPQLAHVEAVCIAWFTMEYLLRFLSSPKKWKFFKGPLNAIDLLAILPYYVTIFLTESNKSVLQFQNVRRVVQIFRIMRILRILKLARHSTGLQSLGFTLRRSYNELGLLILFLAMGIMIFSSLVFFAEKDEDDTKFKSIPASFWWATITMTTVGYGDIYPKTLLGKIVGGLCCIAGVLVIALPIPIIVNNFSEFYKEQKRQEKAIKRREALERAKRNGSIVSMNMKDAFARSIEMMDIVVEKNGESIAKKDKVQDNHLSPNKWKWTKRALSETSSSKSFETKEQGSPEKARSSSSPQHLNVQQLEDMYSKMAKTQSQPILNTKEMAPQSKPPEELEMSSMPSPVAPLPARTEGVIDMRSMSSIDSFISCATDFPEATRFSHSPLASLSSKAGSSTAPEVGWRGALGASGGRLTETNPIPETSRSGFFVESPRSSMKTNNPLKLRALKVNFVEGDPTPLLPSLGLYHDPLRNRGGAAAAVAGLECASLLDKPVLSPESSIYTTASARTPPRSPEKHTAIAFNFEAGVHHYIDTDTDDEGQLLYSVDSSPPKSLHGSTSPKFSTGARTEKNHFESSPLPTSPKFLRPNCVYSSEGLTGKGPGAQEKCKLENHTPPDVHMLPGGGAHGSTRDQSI
T3 sequence (Q03719 whole entry): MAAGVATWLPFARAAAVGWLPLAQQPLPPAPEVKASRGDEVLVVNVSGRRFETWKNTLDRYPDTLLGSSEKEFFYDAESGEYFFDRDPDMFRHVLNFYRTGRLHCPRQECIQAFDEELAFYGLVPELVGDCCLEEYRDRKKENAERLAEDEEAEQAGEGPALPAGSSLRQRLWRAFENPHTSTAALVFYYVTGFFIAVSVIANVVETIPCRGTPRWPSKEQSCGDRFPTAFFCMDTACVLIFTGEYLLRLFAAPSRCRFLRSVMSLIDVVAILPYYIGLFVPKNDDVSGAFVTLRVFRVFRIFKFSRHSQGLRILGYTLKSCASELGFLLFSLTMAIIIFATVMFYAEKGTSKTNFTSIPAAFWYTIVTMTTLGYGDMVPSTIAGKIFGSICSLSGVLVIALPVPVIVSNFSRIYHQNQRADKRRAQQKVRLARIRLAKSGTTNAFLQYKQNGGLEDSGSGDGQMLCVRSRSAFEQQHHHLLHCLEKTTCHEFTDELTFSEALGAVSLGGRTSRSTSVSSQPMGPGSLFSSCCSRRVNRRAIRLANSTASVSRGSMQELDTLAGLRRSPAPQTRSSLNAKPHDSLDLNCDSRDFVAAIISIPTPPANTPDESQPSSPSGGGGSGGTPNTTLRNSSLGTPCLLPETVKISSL
T1 sequence (Q63881 whole entry D281A): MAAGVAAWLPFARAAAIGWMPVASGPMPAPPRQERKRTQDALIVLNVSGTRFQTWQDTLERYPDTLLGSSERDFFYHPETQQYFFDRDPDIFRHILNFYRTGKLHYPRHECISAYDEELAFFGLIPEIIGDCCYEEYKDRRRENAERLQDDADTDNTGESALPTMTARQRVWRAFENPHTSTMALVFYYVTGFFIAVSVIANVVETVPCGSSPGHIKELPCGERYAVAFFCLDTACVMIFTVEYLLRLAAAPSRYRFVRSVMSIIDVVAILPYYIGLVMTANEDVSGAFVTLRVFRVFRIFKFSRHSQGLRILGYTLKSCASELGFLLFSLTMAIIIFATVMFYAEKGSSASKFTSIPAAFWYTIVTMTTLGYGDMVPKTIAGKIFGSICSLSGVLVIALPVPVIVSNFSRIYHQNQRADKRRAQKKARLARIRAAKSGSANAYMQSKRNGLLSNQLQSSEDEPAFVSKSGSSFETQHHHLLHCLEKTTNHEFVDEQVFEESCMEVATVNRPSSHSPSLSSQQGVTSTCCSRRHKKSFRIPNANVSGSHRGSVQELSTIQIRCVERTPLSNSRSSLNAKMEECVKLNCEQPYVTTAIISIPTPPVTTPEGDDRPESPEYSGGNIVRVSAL

Molecule `CC(C)C[C@H](NC(=O)[C@H](Cc1ccc(O)cc1)NC(=O)[C@@H](NC(=O)[C@H](CCCCN)NC(=O)[C@@H]1CSSC[C@@H]2NC(=O)[C@H](CCC(=O)O)NC(=O)[C@H](CC(N)=O)NC(=O)[C@H](CCCCN)NC(=O)CNC(=O)[C@@H]3CCCN3C(=O)[C@H]([C@@H](C)O)NC(=O)[C@@H]3CSSC[C@H](NC(=O)[C@H](C)NC(=O)[C@H](Cc4ccc(O)cc4)NC(=O)[C@H](CC(N)=O)NC(=O)[C@@H]4CCCN4C(=O)[C@H](CSSC[C@H](NC(=O)CN)C(=O)N[C@@H](CCCCN)C(=O)NCC(=O)N[C@@H](Cc4ccccc4)C(=O)NCC(=O)N[C@@H](CC(=O)O)C(=O)N[C@@H](CO)C(=O)N3)NC2=O)C(=O)N[C@@H](CO)C(=O)N[C@@H](CO)C(=O)N[C@@H](CCCCN)C(=O)N[C@@H](Cc2c[nH]cn2)C(=O)N[C@@H](CCCCN)C(=O)N[C@@H](Cc2c[nH]c3ccccc23)C(=O)N1)C(C)C)C(N)=O` [HNTX-III] (H-GCKGFGDSCTPGKNECCPNYACSSKHKWCKVYL-NH2; disulfide 2-17, 9-22, 16-29) has an IC50 [1] of 214 ± 76 nM.

`CSCC[C@@H]1NC(=O)CNC(=O)[C@H](CCC(=O)O)NC(=O)[C@@H]2CSSC[C@H](NC(=O)[C@@H](N)Cc3ccc(O)cc3)C(=O)N[C@@H](CCC(N)=O)C(=O)N[C@@H](CCCCN)C(=O)N[C@@H](Cc3c[nH]c4ccccc34)C(=O)N[C@@H](CCSC)C(=O)N[C@@H](Cc3c[nH]c4ccccc34)C(=O)N[C@@H]([C@@H](C)O)C(=O)N[C@H]3CSSC[C@H](NC(=O)[C@H](C(C)C)NC1=O)C(=O)N[C@@H](CCCNC(=N)N)C(=O)N[C@@H](CC(C)C)C(=O)N[C@@H](Cc1c[nH]c4ccccc14)C(=O)N[C@H](C(=O)N[C@@H](CCCCN)C(=O)N[C@@H](CCCCN)C(=O)N[C@@H](CCCCN)C(=O)N[C@@H](CC(C)C)C(=O)N[C@@H](Cc1c[nH]c4ccccc14)C(=O)O)CSSC[C@H](NC(=O)[C@H](CCCCN)NC(=O)[C@H](CCCNC(=N)N)NC(=O)[C@H](CCC(=O)O)NC(=O)[C@H](CO)NC(=O)[C@H](CC(=O)O)NC3=O)C(=O)N2` [ProTx-II] gave an IC50 [2] of 78.7 ± 9 nM and an IC50 [3] of 38.1 ± 5.3 nM.

In the case of `CC[C@H](C)[C@@H]1NC(=O)[C@@H]2CSSC[C@@H]3NC(=O)[C@H](C(C)C)NC(=O)[C@H](CC(C)C)NC(=O)[C@H](CC(N)=O)NC(=O)[C@@H]4CCCN4C(=O)[C@H](CCCNC(=N)N)NC(=O)[C@H](CSSC[C@H](NC(=O)[C@@H](N)CC(=O)O)C(=O)N[C@@H](CC(C)C)C(=O)NCC(=O)N[C@@H](C)C(=O)N[C@@H](Cc4ccccc4)C(=O)N[C@@H](CCCNC(=N)N)C(=O)N[C@@H](CCCCN)C(=O)N2)NC(=O)[C@H](CSSC[C@@H](C(=O)N[C@@H](CCCCN)C(=O)N[C@@H](Cc2ccc(O)cc2)C(=O)N[C@H](C(=O)N[C@@H](Cc2ccccc2)C(N)=O)C(C)C)NC(=O)[C@H](Cc2c[nH]c4ccccc24)NC(=O)[C@H](CCCNC(=N)N)NC(=O)[C@H](Cc2c[nH]cn2)NC(=O)[C@H](C)NC(=O)[C@H](CO)NC(=O)[C@H](CO)NC3=O)NC(=O)[C@H](CCCCN)NC(=O)[C@H](CC(=O)O)NC(=O)[C@H](CC(N)=O)NC(=O)[C@H](CC(=O)O)NC(=O)[C@@H]2CCCN2C1=O` [mGpTx1-SA] (H-DCLGAFRKCIPDNDKCCRPNLVCSSAHRWCKYVF-NH2; disulfide 2-17, 9-23, 16-30), the “inhibition of Kv currents in the primary cardiomyocytes” value [4] is reported as “did not inhibit”.
